# Laboratory results published in paper doi:10.1101/2023.04.18.537371v1 (bioRxiv, 2023).
# Peptide text beside a SMILES is read from it.
# Experiments:
# OATP1B3 = OATP1B3 (Homo sapiens, UniProt Q9NPD5); assay: Transporter inhibition in HEK293 cells; format: in vitro ADME
# [1] = Single-dose pharmacokinetics in beagle dogs; format: in vivo, beagle dog; settings: for AUC0-last: n=3, mean
# Plasma stability = format: in vitro ADME, human
# human hepatocytes = assay: Hepatocyte stability; format: in vitro ADME; settings: 1.00 μM
# mouse hepatocytes = assay: Metabolite identification in hepatocytes; format: in vitro ADME; settings: cryopreserved mouse hepatocytes, FC-12738 10 μM, 37 °C, 240 min, LC-UV-MS
# OCT2 = OCT2 (Homo sapiens, UniProt O15244); assay: Transporter inhibition in HEK293 cells; format: in vitro ADME
# OAT1 = OAT1 (Homo sapiens, UniProt Q4U2R8); assay: Transporter inhibition in HEK293 cells; format: in vitro ADME
# [2] = Plasma and brain levels in male CD-1 mice after a single IP dose; format: in vivo, CD-1 mouse; settings: for Tissue Homogenate Conc / Plasma Conc: male CD-1 mice, IP 10 mg/kg single
# [3] = In vitro blood to plasma partitioning; format: in vitro ADME, rat; settings: for Mean erythrocyte to plasma ratio KE/P: rat whole blood, 37°C, 60 min
# MATE2-K = MATE2-K (Homo sapiens, UniProt Q86VL8); assay: Transporter inhibition in HEK293 cells; format: in vitro ADME
# [4] = tested on: cynomolgus monkey hepatocytes; assay: Hepatocyte stability; format: in vitro ADME; settings: 1.00 μM
# CYP2B6 = format: in vitro ADME; settings: cryopreserved human hepatocytes, three donors, 0.100 to 15.0 μM, 48 h, 37°C
# [5] = Metabolite identification in liver microsomes; format: in vitro ADME; settings: human liver microsomes, 10 μM, 37 °C, 120 min, NADPH
# [6] = Single-dose pharmacokinetics in SD rats; format: in vivo, SD rat
# Caco-2 cell monolayers = assay: Bidirectional permeability and efflux in Caco-2 cells; format: in vitro ADME
# [7] = as above; format: in vitro ADME; settings: human
# [8] = male, beagle, dog, plasma, iv, 1 mg/kg
# [9] = male, beagle, dog, plasma, sc, 5 mg/kg
# [10] = male, CD-1, mouse, brain homogenate, ip, 10 mg/kg
# [11] = male, CD-1, mouse, brain, ip, 10 mg/kg
# [12] = male, CD-1, mouse, plasma, ip, 10 mg/kg
# [13] = male, SD, rat, plasma, iv, 2 mg/kg
# [14] = male, SD, rat, plasma, sc, 10 mg/kg
# [15] = 2.00 μM, with 10.0 μM GF120918, Caco-2, 120 min
# [16] = 10.0 μM, with 10.0 μM GF120918, Caco-2, 120 min
# [17] = 10.0 μM, without GF120918, Caco-2, 120 min
# [18] = 100 μM, with 10.0 μM GF120918, Caco-2, 120 min
# [19] = 100 μM, without GF120918, Caco-2, 120 min
# Chain of OATP1B3 (Q9NPD5 whole entry): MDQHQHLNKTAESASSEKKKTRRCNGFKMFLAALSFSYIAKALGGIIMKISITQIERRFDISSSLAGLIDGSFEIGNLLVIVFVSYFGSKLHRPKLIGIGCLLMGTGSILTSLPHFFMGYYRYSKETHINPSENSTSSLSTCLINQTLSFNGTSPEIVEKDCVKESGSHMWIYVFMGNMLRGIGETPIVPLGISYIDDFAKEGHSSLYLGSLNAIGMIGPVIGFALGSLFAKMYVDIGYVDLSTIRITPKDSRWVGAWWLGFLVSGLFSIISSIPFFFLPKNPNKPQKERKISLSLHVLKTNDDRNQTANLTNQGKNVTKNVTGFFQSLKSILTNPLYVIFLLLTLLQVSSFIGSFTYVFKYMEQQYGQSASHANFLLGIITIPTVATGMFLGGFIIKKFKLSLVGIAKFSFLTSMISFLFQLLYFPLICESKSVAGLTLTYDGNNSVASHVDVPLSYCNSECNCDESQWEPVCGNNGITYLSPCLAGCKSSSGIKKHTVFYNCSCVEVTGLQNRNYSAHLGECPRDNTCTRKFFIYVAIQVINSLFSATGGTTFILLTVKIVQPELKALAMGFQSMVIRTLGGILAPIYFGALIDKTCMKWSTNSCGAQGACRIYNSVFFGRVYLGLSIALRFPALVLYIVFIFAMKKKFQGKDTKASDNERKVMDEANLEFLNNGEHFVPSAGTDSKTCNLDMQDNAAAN
# Chain of OAT1 (Q4U2R8 whole entry): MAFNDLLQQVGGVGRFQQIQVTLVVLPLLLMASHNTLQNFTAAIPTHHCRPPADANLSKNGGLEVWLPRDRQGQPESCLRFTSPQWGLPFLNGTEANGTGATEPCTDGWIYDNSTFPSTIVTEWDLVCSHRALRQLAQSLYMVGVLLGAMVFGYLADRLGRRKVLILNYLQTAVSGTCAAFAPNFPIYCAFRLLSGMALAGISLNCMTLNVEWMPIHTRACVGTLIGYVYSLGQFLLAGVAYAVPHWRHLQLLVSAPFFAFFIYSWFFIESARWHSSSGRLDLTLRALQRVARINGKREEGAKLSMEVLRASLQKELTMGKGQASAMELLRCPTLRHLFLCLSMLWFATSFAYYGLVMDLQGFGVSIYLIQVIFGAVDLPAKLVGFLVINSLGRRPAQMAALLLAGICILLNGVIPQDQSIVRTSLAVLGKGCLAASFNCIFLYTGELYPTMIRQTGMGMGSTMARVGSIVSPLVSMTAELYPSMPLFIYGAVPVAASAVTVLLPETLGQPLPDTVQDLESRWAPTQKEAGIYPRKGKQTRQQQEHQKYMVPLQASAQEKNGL
# Chain of MATE2-K (Q86VL8 1-566 isoform Q86VL8-3): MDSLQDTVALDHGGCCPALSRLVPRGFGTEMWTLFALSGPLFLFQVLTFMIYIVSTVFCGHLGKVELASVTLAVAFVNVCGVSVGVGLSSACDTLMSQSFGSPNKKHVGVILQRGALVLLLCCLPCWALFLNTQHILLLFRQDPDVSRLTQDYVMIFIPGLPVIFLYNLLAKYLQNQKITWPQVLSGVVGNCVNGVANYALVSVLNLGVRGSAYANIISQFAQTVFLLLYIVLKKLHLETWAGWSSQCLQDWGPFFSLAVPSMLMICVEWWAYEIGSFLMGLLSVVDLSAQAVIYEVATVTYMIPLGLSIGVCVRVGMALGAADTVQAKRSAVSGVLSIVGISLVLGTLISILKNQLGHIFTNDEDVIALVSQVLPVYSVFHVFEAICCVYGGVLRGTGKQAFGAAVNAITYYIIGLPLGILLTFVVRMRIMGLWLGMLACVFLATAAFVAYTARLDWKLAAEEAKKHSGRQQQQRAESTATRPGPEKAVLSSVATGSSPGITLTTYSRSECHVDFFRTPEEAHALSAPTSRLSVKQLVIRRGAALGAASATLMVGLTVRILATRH
# Chain of OCT2 (O15244 whole entry): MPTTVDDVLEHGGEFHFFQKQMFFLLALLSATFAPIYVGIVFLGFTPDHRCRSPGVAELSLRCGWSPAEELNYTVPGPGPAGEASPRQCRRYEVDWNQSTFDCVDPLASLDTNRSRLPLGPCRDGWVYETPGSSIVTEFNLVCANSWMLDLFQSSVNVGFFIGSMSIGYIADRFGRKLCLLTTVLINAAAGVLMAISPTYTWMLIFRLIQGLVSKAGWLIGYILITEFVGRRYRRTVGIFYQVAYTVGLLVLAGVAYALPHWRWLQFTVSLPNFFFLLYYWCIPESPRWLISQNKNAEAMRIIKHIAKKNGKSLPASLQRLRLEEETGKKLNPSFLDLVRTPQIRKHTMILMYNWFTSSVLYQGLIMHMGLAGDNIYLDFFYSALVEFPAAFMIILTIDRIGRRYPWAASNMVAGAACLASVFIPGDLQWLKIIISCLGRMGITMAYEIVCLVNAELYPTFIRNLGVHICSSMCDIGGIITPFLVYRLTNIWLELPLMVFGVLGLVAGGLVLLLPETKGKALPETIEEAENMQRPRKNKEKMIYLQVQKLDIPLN
smiles,measurement,setting,value
"CC(C)[C@@H](NC(=O)[C@H](N)Cc1ccc(O)cc1)C(=O)N[C@H](CC(=O)O)C(=O)N[C@H](CCCCN)C(=O)N[C@H](CCCNC(=N)N)C(=O)O [FC-12738, (D-Tyr)-(D-Val)-(D-Asp)-(D-Lys)-(D-Arg)] (HELM PEPTIDE1{[dY].[dV].[dD].[dK].[dR]}$$$$V2.0)",IC50,OATP1B3,> 100 µM
same,Tolerability / adverse effects in-life,"[1]; male beagle dogs, IV 1 mg/kg or SC 5 mg/kg single",No adverse effect was observed
same,AUC0-last,"[1]; male beagle dogs, IV 1 mg/kg single",2850 ± 439 ng·h/mL
same,AUC0-last,"[1]; male beagle dogs, SC 5 mg/kg single",16100 ± 2510 ng·h/mL
same,bioavailability,"[1]; male beagle dogs, SC 5 mg/kg, calculated with mean AUC0-last and nominal dose",112%
same,AUC(0-inf),[1]; [8],2900 ng·h/mL
same,C0,[1]; [8],4820 ng/mL
same,Vd,[1]; [8],0.302 L/kg
same,clearance,[1]; [8],5.85 mL/min/kg
same,AUC(0-inf),[1]; [9],16200 ng·h/mL
same,Cmax,[1]; [9],7300 ng/mL
same,Tmax,[1]; [9],50 min
same,half-life,[1]; [9],53 min
same,half-life,"Plasma stability; human plasma, 2.00 μM, 37.0 °C, up to 120 min",> 372.7 min
same,"remaining at 10 min, 2 μM","Plasma stability; human, plasma",93.3%
same,"remaining at 0.5 h, 2 μM","Plasma stability; human, plasma",93.6%
same,"remaining at 1 h, 2 μM","Plasma stability; human, plasma",90.6%
same,"remaining at 2 h, 2 μM","Plasma stability; human, plasma",85.6%
same,intrinsic clearance CLint(hep),"human hepatocytes; cryopreserved human hepatocytes, 37.0°C, 120 min",< 1.9 μL/min/10^6 cells
same,half-life,"human hepatocytes; cryopreserved human hepatocytes, 37.0°C, 120 min, LC-MS/MS",> 372.7 min
same,hepatic clearance CLint(liver),human hepatocytes; scaled from human hepatocytes,< 5.2 mL/min/kg
same,Relative Abundance (UV%),mouse hepatocytes,88.92%
same,IC50,OCT2,> 100 µM
same,IC50,OAT1,> 100 µM
same,Tissue Homogenate Conc,"[2]; brain homogenate, 0.5 h, animal 2",17.6 ng/mL
same,Tissue Homogenate Conc,"[2]; brain homogenate, 0.5 h, animal 3",14.1 ng/mL
same,Tissue Homogenate Conc,"[2]; brain homogenate, 1 h, animal 1",8.28 ng/mL
same,Tissue Homogenate Conc,"[2]; brain homogenate, 1 h, animal 2",10.1 ng/mL
same,Tissue Homogenate Conc,"[2]; brain homogenate, 1 h, animal 3",8.41 ng/mL
same,Tissue Homogenate Conc,"[2]; brain homogenate, 2 h, animal 1",6.96 ng/mL
same,Tissue Homogenate Conc,"[2]; brain homogenate, 2 h, animal 2",5.73 ng/mL
same,Tissue Homogenate Conc,"[2]; brain homogenate, 2 h, animal 3",7.47 ng/mL
same,Tissue Homogenate Conc,"[2]; brain homogenate, 4 h, animal 1",1.76 ng/mL
same,Tissue Homogenate Conc,"[2]; brain homogenate, 4 h, animal 2",1.22 ng/mL
same,Tissue Homogenate Conc,"[2]; brain homogenate, 4 h, animal 3",1.06 ng/mL
same,level at 0.5 h,[2]; [10],16.4 ng/mL
same,level at 1 h,[2]; [10],8.93 ng/mL
same,level at 2 h,[2]; [10],6.72 ng/mL
same,level at 4 h,[2]; [10],1.35 ng/mL
same,tissue level at time at 0.5 h,[2]; [11],65.5 ng/g
same,tissue level at time at 1 h,[2]; [11],35.7 ng/g
same,tissue level at time at 2 h,[2]; [11],26.9 ng/g
same,tissue level at time at 4 h,[2]; [11],5.39 ng/g
same,level at 0.5 h,[2]; [12],2090 ng/mL
same,level at 1 h,[2]; [12],1210 ng/mL
same,level at 2 h,[2]; [12],627 ng/mL
same,level at 4 h,[2]; [12],84.1 ng/mL
same,level at 8 h,[2]; [12],16.7 ng/mL
same,Plasma Conc,"[2]; plasma, 0.5 h, animal 1, LC-MS/MS",2230 ng/mL
same,Plasma Conc,"[2]; plasma, 0.5 h, animal 2",1790 ng/mL
same,Plasma Conc,"[2]; plasma, 0.5 h, animal 3",2260 ng/mL
same,Plasma Conc,"[2]; plasma, 1 h, animal 1",885 ng/mL
same,Plasma Conc,"[2]; plasma, 1 h, animal 2",1320 ng/mL
same,Plasma Conc,"[2]; plasma, 1 h, animal 3",1420 ng/mL
same,Plasma Conc,"[2]; plasma, 2 h, animal 1",543 ng/mL
same,Plasma Conc,"[2]; plasma, 2 h, animal 2",592 ng/mL
same,Plasma Conc,"[2]; plasma, 2 h, animal 3",745 ng/mL
same,Plasma Conc,"[2]; plasma, 4 h, animal 1",97.9 ng/mL
same,Plasma Conc,"[2]; plasma, 4 h, animal 2",74.6 ng/mL
same,Plasma Conc,"[2]; plasma, 4 h, animal 3",79.8 ng/mL
same,Plasma Conc,"[2]; plasma, 8 h, animal 1",19.1 ng/mL
same,Plasma Conc,"[2]; plasma, 8 h, animal 2",17.5 ng/mL
same,Plasma Conc,"[2]; plasma, 8 h, animal 3",13.4 ng/mL
same,Mean erythrocyte to plasma ratio KE/P,[3]; 0.200 μM,< 0.21
same,Mean erythrocyte to plasma ratio KE/P,[3]; 2.00 μM,< 0.11
same,Mean erythrocyte to plasma ratio KE/P,[3]; 10.0 μM,< 0.03
same,"tissue to tissue ratio at 1 h, 0.2 µM","[3]; rat, whole blood",0.48
same,"tissue to tissue ratio at 1 h, 2 µM","[3]; rat, whole blood",0.5
same,"tissue to tissue ratio at 1 h, 10 µM","[3]; rat, whole blood",0.47
same,IC50,MATE2-K,> 100 µM
same,intrinsic clearance CLint(hep),"[4]; cryopreserved cynomolgus monkey hepatocytes, 37.0°C, 120 min",< 1.9 μL/min/10^6 cells
same,half-life,"[4]; cryopreserved cynomolgus monkey hepatocytes, 37.0°C, 120 min, LC-MS/MS",> 372.7 min
same,hepatic clearance CLint(liver),[4]; scaled from cynomolgus monkey hepatocytes,< 6.7 mL/min/kg
same,Induction of CYP2B6 (enzyme activity and gene expression),CYP2B6,not considered as an inducer
same,Metabolites detected,[5],No metabolites of FC-12738 were detected
same,Relative Abundance (MS Peak Area %Total),[5]; LC-UV-MS,100.00%
same,Tolerability / adverse effects in-life,"[6]; male SD rats, IV 2 mg/kg or SC 10 mg/kg single",No adverse effect was observed
same,AUC(0-inf),[6]; [13],2830 ng·h/mL
same,AUC(0-t),[6]; [13],2800 ng·h/mL
same,C0,[6]; [13],7830 ng/mL
same,Vd,[6]; [13],0.309 L/kg
same,clearance,[6]; [13],11.8 mL/min/kg
same,half-life,[6]; [13],19.1 min
same,AUC(0-inf),[6]; [14],13000 ng·h/mL
same,AUC(0-t),[6]; [14],13000 ng·h/mL
same,Cmax,[6]; [14],8430 ng/mL
same,Tmax,[6]; [14],25 min
same,bioavailability,[6]; [14],91.9%
same,half-life,[6]; [14],40.8 min
same,Mean %Solution Recovery A to B,Caco-2 cell monolayers; [15],<92.9%
same,Mean %Solution Recovery B to A,Caco-2 cell monolayers; [15],<96.5%
same,Mean %Solution Recovery A to B,Caco-2 cell monolayers; [16],89.9%
same,Mean %Solution Recovery B to A,Caco-2 cell monolayers; [16],96.5%
same,Mean %Solution Recovery A to B,Caco-2 cell monolayers; [17],90.2%
same,Mean %Solution Recovery B to A,Caco-2 cell monolayers; [17],100.5%
same,Efflux Ratio (ERi),Caco-2 cell monolayers; [18],1.23
same,Mean %Solution Recovery A to B,Caco-2 cell monolayers; [18],86.9%
same,Mean %Solution Recovery B to A,Caco-2 cell monolayers; [18],97.0%
same,Mean %Solution Recovery A to B,Caco-2 cell monolayers; [19],89.1%
same,Mean %Solution Recovery B to A,Caco-2 cell monolayers; [19],95.3%
same,Permeability across the Caco-2 cell monolayer (conclusion),"Caco-2 cell monolayers; 2.00, 10.0 and 100 μM",low permeable
same,"efflux ratio at 120 min, 10 μM",[7]; Caco-2,0.88
same,"efflux ratio at 120 min, 100 μM",[7]; Caco-2,1.24
same,"efflux ratio at 120 min, 10 μM","[7]; Caco-2, with GF120918 10.0 μM",1.13
